These results are taken from patent publication US20100317621A1, “BETA-LACTAMASE INHIBITORS” (priority 2007, published 2010).

In brackets after ≈: the same amount, converted by molar mass. Where only a bound is given, the exact number is not on record here.

For assay [1], the system named is E. coli expressing the Class A ESBL CTX-M-15. The assay is described as follows: microbe, parasite or virus in culture. As to conditions: Escherichia coli, read-out: MIC alone, E. coli CTX-M-15. The assay is classed as cell-based.
Assay [2] deals with E. cloacae expressing the Class C P99+. Type of assay: cell-based. As to conditions: in the presence of fixed 8 μg/mL ceftazidime; CAMHB, 16-20 hours at 37° C. The source says: (§1) To determine the ability of test compounds to potentiate the inhibition of the growth of bacterial strains producing beta-lactamase enzymes, classic cell based screening assays were employed. Four bacteria strains producing beta-lactamase enzymes were used: E. coli expressing the Class A Extended Spectrum Beta-Lactamase (ESBL) CTX-M-15, E. coli expressing the Class A ESBL SHV-5, E. cloacae expressing the Class C P99+, and K. pneumoniae expressing the Class A carbapenemase KPC-2. In order to evaluate the ability of test compounds to inhibit beta-lactamase activity, Applicants used a modification of the broth microdilution assay. The assay was conducted in Cation Adjusted Mueller Hinton Broth (CAMHB, BD #212322, BD Diagnostic Systems, Sparks, Md.). Bacteria strains were grown for 3-5 hours in CAMBH broth. All four strains were grown in presence of 50 μg/mL ampicillin to ensure resistance is maintained. In the meantime, test compounds were diluted in DMSO to a 0.1 mg/mL stock. The compounds were added to a microtiter plate and were diluted in 2-fold serial dilutions in CAMHB in a final concentration range of 32 μg/mL to 0.25 μg/mL. An overlay of CAMHB containing a cephalosporin was added to the compounds at a final static concentration of 8 μg/mL. […] Each of these compound plates are made in quadruplicate, one for each bacteria strain. In addition to the titration of test compounds the MICs of a panel of cephalosporins is also tested to ensure the strains are behaving consistently from test to test. Once the test compound and cephalosporin are added the plates can be inoculated. Inocula are conducted according to CLSI broth microdilution method. After inoculation the plates are incubated for 16-20 hours at 37° C. then the Minimal Inhibitory Concentration (MIC) of the test compound is determined visually.
(§2) Using the methodology described above, examples of the current invention were evaluated for their ability to inhibit the growth of β-lactamase producing bacteria in the presence of a β-lactam antibiotic.

For assay [3], the system named is E. coli expressing the Class A ESBL CTX-M-15. The assay is classed as cell-based. The note with it: in the presence of fixed 8 μg/mL cefotaxime; CAMHB, 16-20 hours at 37° C.
Description: as §1, §2

The subject of assay [4] is E. coli expressing the Class A ESBL SHV-5. Type of assay: cell-based. The note with it: in the presence of fixed 8 μg/mL ceftazidime; CAMHB, 16-20 hours at 37° C.
Description: as §1, §2

In assay [5] the test system is K. pneumoniae expressing the Class A carbapenemase KPC-2. Type of assay: cell-based. The note with it: in the presence of fixed 8 μg/mL ceftazidime; CAMHB, 16-20 hours at 37° C.
Description: as §1, §2

The target of a further assay is T1, P99 AmpC β-lactamase (Enterobacter cloacae, UniProt P05364).
T1 construct: The β-lactamases were extracted by four cycles of freezing and thawing followed by centrifugation; endogenous in cells; host or cells: Enterobacter cloacae cells containing P99 (crude freeze-thaw extract)
As to the kind of experiment: biochemical. The assay is classed as biochemical. The note with it: crude enzyme extract, 10 min preincubation at 37° C., nitrocefin 100 μM, PBS pH 7.0; read-out: P99 AmpC IC50 Range. Here is the method: (§3) Isolation of β-lactamases. Crude β-lactamase extracts were prepared from 20 ml overnight cultures with shaking. Escherichia coli cells containing SHV-5 or CTXM-15 and Enterobacter cloacae cells containing P99 were further diluted 10-fold and grown to mid-log phase (OD at 600 nm, 0.5-0.8) in Mueller-Hinton II (MH-II) broth at 37° C. The cells were pelleted at 5000 g, washed and resuspended in 2 mL PBS pH 7.0. The β-lactamases were extracted by four cycles of freezing and thawing followed by centrifugation. β-lactamase activity in the extracts was measured with the chromogenic cephalosporin nitrocefin. The amount of protein in each β-lactamase preparation was determined by the bicinchoninic acid (BCA) assay.
(§4) β-lactamase Inhibition. To determine the level of inhibition of β-lactamase enzymes, compounds were diluted in PBS at pH 7.0 to yield concentrations between 100 and 0.005 μM in microtiter plates. An equal volume of diluted enzyme stock was added, and the plates were incubated at 37° C. for 10 min. Nitrocefin solution was then dispensed as substrate into each well at a final concentration of 100 μM, and the plates were immediately read with the kinetic program at 486 nm for 10 min on the SPECTRAMAX® Plus^384 (high-throughput microplate spectrophotometer; Molecular Devices Corp., Sunnyvale, Calif.). Maximum rates of metabolism were then compared to those in control wells (without inhibitors), and percentages of enzyme inhibition were calculated for each concentration of inhibitor. The concentration of inhibitor needed to reduce the initial rate of hydrolysis of substrate by 50% (IC50) was calculated as the residual activity of β-lactamase at 486 nm using the SoftMax Pro 5.0 software (Molecular Devices Corp.).

The target in another assay is T2, CTXM-15 β-lactamase (Escherichia coli, UniProt Q9EXV5).
T2 construct: The β-lactamases were extracted by four cycles of freezing and thawing followed by centrifugation; endogenous in cells; host or cells: Escherichia coli cells containing CTXM-15 (crude freeze-thaw extract)
As to the kind of experiment: biochemical. As to conditions: crude enzyme extract, 10 min preincubation at 37° C., nitrocefin 100 μM, PBS pH 7.0; read-out: CTXM-15 IC50 Range. The assay is classed as biochemical. As to the method:
as §3, §4

For the next assay, the target named is T3, SHV-5 β-lactamase (Klebsiella pneumoniae, UniProt P0A3M1).
T3 construct: The β-lactamases were extracted by four cycles of freezing and thawing followed by centrifugation; endogenous in cells; host or cells: Escherichia coli cells containing SHV-5 (crude freeze-thaw extract)
As to the kind of experiment: biochemical. The assay is classed as biochemical, Escherichia coli. The note with it: crude enzyme extract, 10 min preincubation at 37° C., nitrocefin 100 μM, PBS pH 7.0; read-out: SHV-5 IC50 Range. Here is the method:
as §3, §4

T3 sequence (P0A3M1 22-286): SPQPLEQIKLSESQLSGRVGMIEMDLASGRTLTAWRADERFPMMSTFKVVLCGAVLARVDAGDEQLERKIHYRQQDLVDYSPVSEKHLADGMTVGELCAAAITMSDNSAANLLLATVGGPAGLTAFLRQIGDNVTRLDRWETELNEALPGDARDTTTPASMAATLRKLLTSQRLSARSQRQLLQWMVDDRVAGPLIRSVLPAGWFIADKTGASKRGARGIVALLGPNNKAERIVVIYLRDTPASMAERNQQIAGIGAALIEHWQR
T2 sequence (Q9EXV5 29-291): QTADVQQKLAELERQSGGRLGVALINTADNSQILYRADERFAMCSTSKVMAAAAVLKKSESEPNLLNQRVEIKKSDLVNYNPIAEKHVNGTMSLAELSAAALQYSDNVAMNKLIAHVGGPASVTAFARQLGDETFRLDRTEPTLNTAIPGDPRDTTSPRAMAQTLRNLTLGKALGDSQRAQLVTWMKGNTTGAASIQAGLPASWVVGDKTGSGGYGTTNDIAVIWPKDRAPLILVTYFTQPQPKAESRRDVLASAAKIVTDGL
T1 sequence (P05364 21-381): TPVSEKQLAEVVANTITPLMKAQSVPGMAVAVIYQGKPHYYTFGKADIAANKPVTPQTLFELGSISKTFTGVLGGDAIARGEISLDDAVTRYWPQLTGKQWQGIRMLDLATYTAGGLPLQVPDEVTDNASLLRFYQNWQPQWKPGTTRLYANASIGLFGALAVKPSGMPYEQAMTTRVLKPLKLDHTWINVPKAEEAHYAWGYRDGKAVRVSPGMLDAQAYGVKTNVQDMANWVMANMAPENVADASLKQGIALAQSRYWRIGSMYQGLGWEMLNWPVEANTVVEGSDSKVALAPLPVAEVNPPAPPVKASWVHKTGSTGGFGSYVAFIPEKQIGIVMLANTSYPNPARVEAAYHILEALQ

With `CO/N=C(\C(=O)N[C@@H]1C(=O)N2C(C(=O)O)=C(COC(C)=O)CS[C@H]12)c1csc(N)n1` [cefotaxime], the MIC in assay [1] was 1020 µg/mL (≈ 2250 µM).

Consider `COc1ccc(CC(=O)N[C@@H](Cc2cccc(C(=O)O)c2)B(O)O)cc1OC` [Example 11, (1R)-1-(3,4-Dimethoxyphenylacetylamino)-2-(3-carboxyphenyl)ethyl-1-boronic acid], for which the “MIC of example compound, E. cloacae P99+ + 8 μg/mL CAZ” value in assay [2] is “B (B represents an MIC between 2 and 32 μg/mL)”. In assay [3], the “MIC of example compound, E. coli CTXM-15 + 8 μg/mL TAX” value is “B (B represents an MIC between 2 and 32 μg/mL)”. For the same compound, in assay [4], the “MIC of example compound, E. coli SHV-5 + 8 μg/mL CAZ” value was “B (B represents an MIC between 2 and 32 μg/mL)”. For the same compound, the “MIC of example compound, K. pneumoniae KPC-2 + 8 μg/mL CAZ” value in assay [5] is reported as “A (A represents an MIC>32 μg/mL)”. Besides, the values for the IC50 on P99 AmpC β-lactamase, at CTXM-15 β-lactamase and on SHV-5 β-lactamase were 100 to 1000 nM, under 100 nM and under 100 nM, respectively.

As for `O=C(Cc1ccsc1)N[C@@H](Cc1cccc(C(=O)O)c1)B(O)O` [Example 29, (1R)-1-(2-thiophene-3-yl-acetylamino)-2-(3-carboxyphenyl)ethyl-1-boronic acid], the “MIC of example compound, E. cloacae P99+ + 8 μg/mL CAZ” value in assay [2] was “A (A represents an MIC>32 μg/mL)”. Moreover, the “MIC of example compound, E. coli CTXM-15 + 8 μg/mL TAX” value in assay [3] is listed as “C (C represents an MIC of <2 μg/mL)”. Further, the “MIC of example compound, E. coli SHV-5 + 8 μg/mL CAZ” value in assay [4] was 8 µg/mL. The “MIC of example compound, K. pneumoniae KPC-2 + 8 μg/mL CAZ” value in assay [5] is “B (B represents an MIC between 2 and 32 μg/mL)”. Further, the IC50 on P99 AmpC β-lactamase was 100 to 1000 nM; on CTXM-15 β-lactamase it was 100 to 1000 nM; at SHV-5 β-lactamase, under 100 nM.
